Laboratory results reported in ChEMBL document CHEMBL1201862, “PubChem BioAssay data set” (2004).
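Protocol summary: plate cells (96-well), add compound at 5 concentrations, incubate 48 h, interpolate endpoints linearly. GI50 marks 50% less growth.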 Active and inactive are the calls of the source. No stated cut-off is given here; in the data, active = GI50 up to about 1.1 µM and inactive = higher.

Columns and labels:
Assay in all cases: inhibition of tumour cell growth, NCI panel, 48 h
[1] = tested on: RXF 393
[2] = tested on: SF-268
[3] = tested on: RPMI-8226
[4] = tested on: OVCAR-5
[5] = tested on: HT-29
[6] = tested on: 786-0
[7] = tested on: KM12
[8] = tested on: Hs-578T
[9] = tested on: SNB-19
[10] = tested on: PC-3
[11] = tested on: DU-145
[12] = tested on: CAKI-1
[13] = tested on: HCC 2998
[14] = tested on: UACC-257
[15] = tested on: OVCAR-3
[16] = tested on: EKVX
[17] = tested on: HCT-116
[18] = tested on: SW-620
[19] = tested on: SR
[20] = tested on: SF-539

| SMILES | GI50 [1] | GI50 [2] | GI50 [3] | GI50 [4] | GI50 [5] | GI50 [6] | GI50 [7] | GI50 [8] | GI50 [9] | GI50 [10] | GI50 [11] | GI50 [12] | GI50 [13] | GI50 [14] | GI50 [15] | GI50 [16] | GI50 [17] | GI50 [18] | GI50 [19] | GI50 [20] |
| --- | --- | --- | --- | --- | --- | --- | --- | --- | --- | --- | --- | --- | --- | --- | --- | --- | --- | --- | --- | --- |
| S=C1NCN2CCN(CC2)CNC(=S)C(=S)NCN2CCN(CC2)CNC1=S | 56 µM (inactive) | 61.2 µM (inactive) | 23.7 µM (inactive) | > 100 µM (inactive) | 85.5 µM (inactive) | 45.1 µM (inactive) | > 100 µM (inactive) | 54.1 µM (inactive) | 41.1 µM (inactive) | 35.2 µM (inactive) | 36.8 µM (inactive) | 35.2 µM (inactive) | 78.5 µM (inactive) | 42.7 µM (inactive) | 22 µM (inactive) | 40.9 µM (inactive) | 79.4 µM (inactive) | 30.4 µM (inactive) | 58.9 µM (inactive) | – |
| CN(N=O)C(=O)N[C@H]1C(O)O[C@H](CO)[C@@H](O)[C@@H]1O (stereo partly drawn) | 600 µM (inactive) | 608 µM (inactive) | 565 µM (inactive) | 647 µM (inactive) | 618 µM (inactive) | 309 µM (inactive) | 625 µM (inactive) | > 750 µM (inactive) | 565 µM (inactive) | > 750 µM (inactive) | > 750 µM (inactive) | 429 µM (inactive) | 533 µM (inactive) | 600 µM (inactive) | 653 µM (inactive) | 643 µM (inactive) | 573 µM (inactive) | 511 µM (inactive) | 537 µM (inactive) | 612 µM (inactive) |
| C/N=C(N)/N=C(\N)Nc1cc2ccccc2c2ccccc12 | 14.9 µM (inactive) | 13.4 µM (inactive) | 15.5 µM (inactive) | 17.5 µM (inactive) | 15 µM (inactive) | 12.4 µM (inactive) | 17.1 µM (inactive) | 16.9 µM (inactive) | 15.8 µM (inactive) | 15.8 µM (inactive) | 15.2 µM (inactive) | 14.5 µM (inactive) | 2.44 µM (inactive) | 16.7 µM (inactive) | 16.7 µM (inactive) | 16.3 µM (inactive) | 12.9 µM (inactive) | 16.6 µM (inactive) | 13.8 µM (inactive) | 15.2 µM (inactive) |
| C/C(=N\Nc1nc2ccccc2s1)c1cnccn1 | 12.7 µM (inactive) | 1.16 µM (inactive) | 2.89 µM (inactive) | 3.33 µM (inactive) | 0.175 µM (active) | 2.13 µM (inactive) | 2.07 µM (inactive) | 2.33 µM (inactive) | 3.67 µM (inactive) | 2.12 µM (inactive) | 4.34 µM (inactive) | 0.256 µM (active) | 7.21 µM (inactive) | 4.13 µM (inactive) | 0.49 µM (active) | 0.146 µM (active) | 1.5 µM (inactive) | 0.505 µM (active) | 0.652 µM (active) | 5.24 µM (inactive) |
| Oc1nc(S)nc2nc3c4cccnc4c4ccccc4c3nc12 | 49.8 µM (inactive) | > 100 µM (inactive) | 45.8 µM (inactive) | > 100 µM (inactive) | > 100 µM (inactive) | > 100 µM (inactive) | 79.8 µM (inactive) | > 100 µM (inactive) | > 100 µM (inactive) | > 100 µM (inactive) | > 100 µM (inactive) | > 100 µM (inactive) | > 100 µM (inactive) | > 100 µM (inactive) | > 100 µM (inactive) | > 100 µM (inactive) | > 100 µM (inactive) | > 100 µM (inactive) | 50.4 µM (inactive) | > 100 µM (inactive) |
| O=c1[nH]c(=O)n(C2OC(CO)C(O)C2O)c2ccsc12 (stereo not drawn) | > 100 µM (inactive) | > 100 µM (inactive) | > 100 µM (inactive) | > 100 µM (inactive) | > 100 µM (inactive) | > 100 µM (inactive) | > 100 µM (inactive) | > 100 µM (inactive) | – | > 100 µM (inactive) | > 100 µM (inactive) | > 100 µM (inactive) | > 100 µM (inactive) | > 100 µM (inactive) | > 100 µM (inactive) | > 100 µM (inactive) | > 100 µM (inactive) | > 100 µM (inactive) | > 100 µM (inactive) | > 100 µM (inactive) |
| C[N+](C)(C)CC1CCCCCCCCCCC1=O (stereo not drawn) | > 100 µM (inactive) | > 100 µM (inactive) | > 100 µM (inactive) | > 100 µM (inactive) | > 100 µM (inactive) | > 100 µM (inactive) | > 100 µM (inactive) | > 100 µM (inactive) | > 100 µM (inactive) | > 100 µM (inactive) | > 100 µM (inactive) | > 100 µM (inactive) | > 100 µM (inactive) | > 100 µM (inactive) | > 100 µM (inactive) | > 100 µM (inactive) | > 100 µM (inactive) | > 100 µM (inactive) | > 100 µM (inactive) | > 100 µM (inactive) |
| Cc1cc(=O)n2nc(CSc3nnc(Sc4cc(O)ccc4O)s3)sc2n1 | 51.6 µM (inactive) | 54.6 µM (inactive) | 24.5 µM (inactive) | > 100 µM (inactive) | > 100 µM (inactive) | 41.3 µM (inactive) | > 100 µM (inactive) | 44.9 µM (inactive) | > 100 µM (inactive) | > 100 µM (inactive) | > 100 µM (inactive) | > 100 µM (inactive) | > 100 µM (inactive) | > 100 µM (inactive) | 34.4 µM (inactive) | 99.3 µM (inactive) | 19.7 µM (inactive) | 22.8 µM (inactive) | 28.3 µM (inactive) | > 100 µM (inactive) |
| Cc1cc2c(cc1-c1cc3c(cc1C)C(C(C)C)=C(O)C(=O)/C3=C\NCC1CCCN3CCCCC13)/C(=C/NCC1CCCN3CCCCC13)C(=O)C(O)=C2C(C)C (stereo not drawn) | 5.93 µM (inactive) | 3.85 µM (inactive) | 11.3 µM (inactive) | 10.8 µM (inactive) | 2.47 µM (inactive) | 3.02 µM (inactive) | 5.15 µM (inactive) | 10.2 µM (inactive) | 7.98 µM (inactive) | 5.02 µM (inactive) | 11 µM (inactive) | 3.81 µM (inactive) | 17.5 µM (inactive) | 15.3 µM (inactive) | 3.01 µM (inactive) | 7.98 µM (inactive) | 4.72 µM (inactive) | 5.48 µM (inactive) | 26.2 µM (inactive) | 14.9 µM (inactive) |
| O=C1/C(=C/c2ccc(O)cc2)CCCC1CN1CCCCC1 (stereo not drawn) | 13.7 µM (inactive) | 3.44 µM (inactive) | 1.32 µM (inactive) | 16.3 µM (inactive) | 2.62 µM (inactive) | 1.02 µM (active) | 1.64 µM (inactive) | 3.71 µM (inactive) | 17.6 µM (inactive) | 5.38 µM (inactive) | 7.24 µM (inactive) | 2.56 µM (inactive) | 4.76 µM (inactive) | 2.52 µM (inactive) | 4.41 µM (inactive) | 3.25 µM (inactive) | 1.79 µM (inactive) | 1.88 µM (inactive) | 1.39 µM (inactive) | 3.94 µM (inactive) |
| CC1(C)C(/C=N\O)=[N+]([O-])C(C)(C)N1O | > 100 µM (inactive) | > 100 µM (inactive) | > 100 µM (inactive) | > 100 µM (inactive) | 54.3 µM (inactive) | > 100 µM (inactive) | > 100 µM (inactive) | > 100 µM (inactive) | > 100 µM (inactive) | > 100 µM (inactive) | > 100 µM (inactive) | > 100 µM (inactive) | > 100 µM (inactive) | > 100 µM (inactive) | 49.7 µM (inactive) | > 100 µM (inactive) | > 100 µM (inactive) | > 100 µM (inactive) | > 100 µM (inactive) | > 100 µM (inactive) |
| Cc1ccc(C(=O)/C=C/N2CCN(c3cccc(C(F)(F)F)c3)CC2)cc1 | 15.7 µM (inactive) | 17.3 µM (inactive) | 31.9 µM (inactive) | 21.4 µM (inactive) | 17.9 µM (inactive) | 18.2 µM (inactive) | 18.7 µM (inactive) | 24 µM (inactive) | 30.1 µM (inactive) | 25.1 µM (inactive) | 16 µM (inactive) | 17.8 µM (inactive) | 12.4 µM (inactive) | 16.4 µM (inactive) | 14.4 µM (inactive) | 18.7 µM (inactive) | 16.7 µM (inactive) | 20.6 µM (inactive) | 19.8 µM (inactive) | 15.9 µM (inactive) |
| O=C1C=C(c2ccccc2)O/C1=C/C(=O)c1ccc(Cl)cc1 | 18.9 µM (inactive) | 23.9 µM (inactive) | 3.33 µM (inactive) | 17.6 µM (inactive) | 18.2 µM (inactive) | 15.9 µM (inactive) | 20.8 µM (inactive) | 22.1 µM (inactive) | 35.5 µM (inactive) | 14.2 µM (inactive) | 37.3 µM (inactive) | 14 µM (inactive) | 15.4 µM (inactive) | 20.7 µM (inactive) | 17.5 µM (inactive) | 90.4 µM (inactive) | 16.4 µM (inactive) | 11.7 µM (inactive) | 2.93 µM (inactive) | 17.8 µM (inactive) |
| CCN(CC)CCNc1ccc2ncn3c4c(OC)ccc(O)c4c(=O)c1c23 | 5.85 µM (inactive) | 6.49 µM (inactive) | 4.21 µM (inactive) | 42.4 µM (inactive) | 7.4 µM (inactive) | 8.93 µM (inactive) | 8.17 µM (inactive) | 92.5 µM (inactive) | 19.6 µM (inactive) | 10.9 µM (inactive) | 19.3 µM (inactive) | 32.1 µM (inactive) | 5.25 µM (inactive) | > 100 µM (inactive) | 31.2 µM (inactive) | 46.8 µM (inactive) | 1.16 µM (inactive) | 3.09 µM (inactive) | 1.63 µM (inactive) | 6.98 µM (inactive) |
